From article PMC7214178, “Ligand‐specific recycling profiles determine distinct potential for chronic analgesic tolerance of delta‐opioid receptor (DOPr) agonists” (Journal of Cellular and Molecular Medicine, 2020)

Tests used:
[1] = system: rat model of streptozotocin (STZ)‐induced diabetic neuropathy; assay: Acute anti‐allodynic dose‐response after single i.t. injection (von Frey); type: in vivo; details: for Analgesia 60 min after injection vs vehicle: i.t. doses that reached maximal effect, one‐way ANOVA vs control, n = 3‐4; for Area under the curves, pEC50 ± SEM (M) / Peak analgesic response, pEC50 ± SEM (M): i.t. in 30 μL; for Area under the curves, pEC50 ± SEM (M) / Area under the curves, Relative EMAX ± SEM: analgesic response integrated over time (AUC); for Area under the curves, pEC50 ± SEM (M) / Peak analgesic response, pEC50 ± SEM (M) / Peak analgesic response, Relative EMAX ± SEM: four‐parameter logistic fit; for Area under the curves, pEC50 ± SEM (M) / Peak analgesic response, pEC50 ± SEM (M) / Area under the curves, Relative EMAX ± SEM / Peak analgesic response, Relative EMAX ± SEM: 3‐4 rats/dose; for Peak analgesic response, pEC50 ± SEM (M) / Peak analgesic response, Relative EMAX ± SEM: mechanical withdrawal threshold 30 min after injection; for Area under the curves, Relative EMAX ± SEM / Peak analgesic response, Relative EMAX ± SEM: normalized to maximal asymptote of agonist with largest effect
Text: Adult male Sprague Dawley (SD) rats, weighing 235‐250 g, were purchased from Charles River laboratories and housed in a controlled environment on a 12‐hour light/dark cycle with free access to food and water. All experimental methods and animal care procedures were approved by the Animal Care Committee of University of Montreal (CDEA protocol 15‐013), in accordance with the guiding principles as enunciated by the Canadian Council on Animal Care.
Type I diabetes was induced by systemic injection of streptozotocin (STZ, 65 mg/kg, i.p.) according to a standardized methodology, which allows development of persistent diabetic neuropathy after the first week of treatment. ^20 At the end of the first week, blood was extracted from the tail vein and blood glucose levels were measured with a glucometer (Accu‐Chek Aviva; Roche Diagnostics) prior to evaluation of analgesia on the second week.
Mechanical allodynia is the consequence of maladaptive neuroplasticity following nerve damage. ^24 In a model of diabetic neuropathy as the one used in this study, hyperglycaemia contributes to generate reactive oxygen species which induce microglia activation and inflammatory mediators. ^25 , ^26 These mediators attenuate the activity of Gly/GABA interneurons in superficial layers ^24 , ^27 , ^28 , ^29 and disrupt the inhibitory control that prevents innocuous touch stimuli from producing pain which leads to allodynia. ^30 DOPrs are expressed in these light‐touch mechanoreceptors ^31 and up‐regulated during sensitization, ^32 , ^33 making DOPr agonists elective for relieving this type of pain. Allodynia was evaluated using Von Frey filaments as previously described. ^19 Briefly, rats were accustomed for 15 min on a metal mesh floor under an inverted plastic box (20 × 10 × 10 cm) in a quiet room dedicated to this behavioural test. After habituation, the plantar surface of the right and left hind legs was alternately touched (6‐8 seconds) with von Frey filaments of progressively wider diameter in order to find the threshold of pressure required to produce withdrawal. The mechanical threshold response was obtained by consigning the pressure in grams that would result in withdrawal of the paw in 50% of 10 trials. A normal rat responds to tactile pressures of 12‐15 g whereas neuropathic rats respond to pressures of 4‐6 g. ^24
In a first series of experiments, dose‐response curves to SNC‐80, SB235863, deltorphin II and TIPP were constructed following intrathecal (i.t.) injection of increasing doses until no increment in maximal anti‐allodynic response was observed. […] Each group of rats received only one ligand and a single dose per day. Saturation of the analgesic response on mechanical allodynia required assessing 5‐6 doses per ligand administered over a period of 5‐6 days, using 3‐4 animals/dose. Injections were made at mid‐lumbar level with a needle 23G × 1/2 under light anaesthesia using 4% isoflurane inhalation in a 1:1 mixture of oxygen and air. The animals were allowed to recover for 15 minutes before mechanical thresholds were determined. Threshold measures were repeated every 15 minutes until the analgesic response disappeared. Peak analgesic responses (30 minutes) or responses integrated over time (area under the curve: AUC) were consigned and plotted as a function of treatment dose. Curves were fitted with the four‐parameter logistic equation in GraphPad 7 to yield ED80 and ED50 values that were then used to treat rats for assessment of chronic tolerance. For each drug, the stock solution was prepared as follows: deltorphin II was dissolved in sterile artificial cerebrospinal fluid (CSF); TIPP and SB235863 stocks were dissolved in sterile water and SNC‐80 in DMSO. Each stock solution was diluted in CSF at required concentrations and injected i.t. in a final volume of 30 μL. Control animals were injected with 30 μL of CSF. At the end of behavioural experiments, rats were anaesthetized by isoflurane and killed by decapitation.

[2] = system: DOPr; design: method as in PMID 24174495; details: cited from earlier work
[3] = i.t., anti‐allodynic effect, STZ rats

Compound | Analgesia 60 min after injection vs vehicle [1] | Area under the curves, pEC50 ± SEM (M) ([1]; STZ rats) | Peak analgesic response, pEC50 ± SEM (M) ([1]; STZ rats) | Area under the curves, Relative EMAX ± SEM ([1]; i.t., STZ rats) | Peak analgesic response, Relative EMAX ± SEM ([1]; i.t., STZ rats) | ED50 (challenge dose) [1, 3] | ED80 derived from dose‐response curves [1, 3] | Decay of cAMP inhibition in HEK cells [2]
deltorphin II | no longer significantly different from vehicle | 5.09 ± 0.05 M | 5.22 ± 0.86 M | 80.5 ± 8.0 | 91.0 ± 9.0 | 0.23 nmol/30 μL | 0.30 nmol/30 μL | fast decay
CCC(C)COC(=O)c1[nH]c2c(c1C)CC1C3Cc4ccc(OC)c5c4C1(CCN3C)C2O5.Cl (stereo not drawn) [SB235863, [8R‐(4bS*,8aα,8aβ,12bβ)]7,10‐dimethyl‐1‐methoxy‐11‐(2‐ethylpropyl)oxycarbonyl 5,6,7,8,12,12b‐hexahydro‐(9H)‐4,8‐methanobenzofuro[3,2‐e]pyrrolo[2,3‐g]isoquinoline hydrochloride] | still present | 4.44 ± 0.03 M | 4.50 ± 0.05 M | 100.6 ± 5.1 | 84.4 ± 8.8 | – | 1.7 nmol/30 μL | slow decay
C=CCN1C[C@H](C)N([C@H](c2ccc(C(=O)N(CC)CC)cc2)c2cccc(OC)c2)C[C@H]1C [SNC‐80, (+)‐4‐[(αR)‐α‐((2S,5R)‐4‐allyl‐2,5‐dimethyl‐1‐piperazinyl)‐3‐methoxybenzyl]‐N,N‐diethylbenzamide] | no longer significantly different from vehicle | 4.95 ± 0.18 M | 5.15 ± 0.06 M | 87.9 ± 22.1 | 100 ± 7.8 | – | 0.55 nmol/30 μL | fast decay
